Test results taken from article PMC7926623 (Marine Drugs, 2021).

Molecular target: rat α6/α3β2β3 nAChR (Rattus norvegicus, UniProt P04757+P12390+P43143)
Assay type: cell-based

Chain of rat α6/α3β2β3 nAChR (P04757 whole entry, looked up): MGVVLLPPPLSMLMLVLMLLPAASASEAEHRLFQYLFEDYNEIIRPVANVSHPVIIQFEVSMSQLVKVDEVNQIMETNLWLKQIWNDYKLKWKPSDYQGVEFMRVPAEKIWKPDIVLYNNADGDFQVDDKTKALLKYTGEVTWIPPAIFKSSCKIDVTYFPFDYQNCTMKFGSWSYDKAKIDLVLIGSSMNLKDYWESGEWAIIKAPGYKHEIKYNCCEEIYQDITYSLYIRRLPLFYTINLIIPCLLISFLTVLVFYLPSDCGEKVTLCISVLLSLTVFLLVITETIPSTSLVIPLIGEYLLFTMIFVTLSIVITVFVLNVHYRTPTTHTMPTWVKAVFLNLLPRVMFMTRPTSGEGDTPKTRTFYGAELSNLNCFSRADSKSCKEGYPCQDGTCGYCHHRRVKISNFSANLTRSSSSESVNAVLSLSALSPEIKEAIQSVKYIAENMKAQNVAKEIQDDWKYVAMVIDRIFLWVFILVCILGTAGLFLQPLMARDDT
Chain of rat α6/α3β2β3 nAChR (P12390 whole entry, looked up): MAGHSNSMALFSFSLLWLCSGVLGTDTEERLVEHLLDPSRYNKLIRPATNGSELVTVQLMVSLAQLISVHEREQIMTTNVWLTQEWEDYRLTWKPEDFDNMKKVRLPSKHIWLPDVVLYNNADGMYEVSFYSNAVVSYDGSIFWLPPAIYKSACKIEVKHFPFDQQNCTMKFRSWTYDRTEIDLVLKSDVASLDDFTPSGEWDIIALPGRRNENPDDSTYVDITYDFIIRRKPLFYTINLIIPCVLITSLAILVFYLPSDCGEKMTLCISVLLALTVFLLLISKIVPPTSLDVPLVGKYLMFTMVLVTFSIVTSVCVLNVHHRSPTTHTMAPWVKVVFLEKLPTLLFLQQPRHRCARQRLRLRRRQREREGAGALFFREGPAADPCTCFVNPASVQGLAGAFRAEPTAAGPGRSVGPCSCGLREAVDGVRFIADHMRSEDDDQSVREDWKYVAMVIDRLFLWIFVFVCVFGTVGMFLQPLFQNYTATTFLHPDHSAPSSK
Chain of rat α6/α3β2β3 nAChR (P43143 whole entry, looked up): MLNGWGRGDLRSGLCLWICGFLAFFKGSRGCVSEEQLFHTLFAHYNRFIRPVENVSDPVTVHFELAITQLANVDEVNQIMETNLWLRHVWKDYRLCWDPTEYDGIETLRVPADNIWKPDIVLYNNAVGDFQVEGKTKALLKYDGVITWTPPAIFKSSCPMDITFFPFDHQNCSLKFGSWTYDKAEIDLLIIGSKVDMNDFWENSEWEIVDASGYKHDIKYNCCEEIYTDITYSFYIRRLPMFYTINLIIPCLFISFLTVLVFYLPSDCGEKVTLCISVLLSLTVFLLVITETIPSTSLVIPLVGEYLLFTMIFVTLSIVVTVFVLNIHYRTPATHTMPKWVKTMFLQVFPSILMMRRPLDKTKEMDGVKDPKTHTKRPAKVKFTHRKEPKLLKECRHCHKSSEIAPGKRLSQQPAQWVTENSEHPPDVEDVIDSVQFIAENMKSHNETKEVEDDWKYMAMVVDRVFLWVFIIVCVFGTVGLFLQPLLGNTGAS

Substance: α-Conotoxin TxIB
- inhibition on α6/α3β2β3 nAChR: about 88%
